According to the NIST ThermoML archive (doi:10.1016/j.fluid.2014.01.018):
± gives the expanded uncertainty stated by the source.

How the values were obtained:
[1] = Crystal; DTA
[2] = Molar enthalpy of transition or fusion; details: Crystal; DSC

Normal melting temperature [1]: 177.74 ± 0.41 °C
Molar enthalpy of transition or fusion [2]: 4.65 ± 0.136 kcal/mol
Compound: CC(C)C1=CC2=CC[C@@H]3[C@](C)(CCC[C@@]3(C)C(=O)O)[C@H]2CC1 [abietic acid]
